Results as given in patent publication US20210196720A1 (UROVANT SCIENCES GMBH, priority 2018, published 2021).
Values joined by “and” are separate entries in the source; they are usually repeats but may differ in a detail not shown here. Identical values can stand only once. Like-named read-outs stand apart in the source and are kept apart here.

How the values were obtained:
[1] = Dose-Cmax and dose-AUC models / simulations for 75 mg; set-up: species or system human
Method: In order to contextualize PK parameters of a 75 mg dose, dose-Cmax and dose-AUC models were created using data from Phase 1 studies.

[2] = human, in vivo
From the text: The accumulation potential of circulating metabolites in plasma was not estimated due to insufficient data from later time points to enable estimation of half-life.

Phase 1 safety data = format: in vivo; conditions: Phase 1, single 2-600 mg, multiple 25-400 mg
From the text: Safety data from 16 Phase 1 studies, which include 15 completed Phase 1 studies and 1 study that was terminated early (this study was terminated for reasons unrelated to efficacy or safety) was collected.

[3] = Multiple rising dose Phase 1 PK, healthy subjects, day 14 (young males unless stated); format: in vivo, human; conditions: for CL renal: urine, read-out: renal clearance CLR at steady state
From the text: The steady state AUC geometric mean accumulation ratios were ˜2 in young male subjects and ˜2.8 in elderly subjects (male and female).
Although exposures were similar in middle-aged males when compared to young males, plasma concentrations were higher in elderly compared to middle-aged and young subjects. […] Furthermore, the steady state AUC geometric mean accumulation ratios were ˜2 in young males and ˜2.8 in the elderly.

[4] = in vivo
[5] = 75 mg, log-log regression of multiple-dose exposures

O=C(Nc1ccc(C[C@@H]2CC[C@H]([C@H](O)c3ccccc3)N2)cc1)[C@@H]1CCc2nccc(=O)n21 [Vibegron, (6S)-N-[4-[[(2S,5R)-5-[(R)-hydroxy(phenyl)methyl]pyrrolidin-2-yl]methyl]phenyl]-4-oxo-7,8-dihydro-6H-pyrrolo[1,2-a]pyrimidine-6-carboxamide]
reduction in Cmax ([1]; 75 mg vs 100 mg): ~40% | calculated AUC (mean±SD) [1, 5]: 1140 ± 476 ng·h/mL | calculated Cmax (mean±SD) [1, 5]: 120 ± 74.7 ng/mL and 120 ng/mL | Cmax ([1]; 100 mg): 206 ng/mL | increase in Cmax ([1]; dose increase from 50 to 100 mg): ~3 fold | dose recovered in feces [2]: approximately 59% | dose recovered in urine [2]: ~20% | total recovery of radioactivity in excreta [2]: 79% | share of plasma radioactivity ([2]; 2 hr): ~78% | share of plasma radioactivity ([2]; 4 hr): ~73% | tolerability (Phase 1 safety data): generally well tolerated | Ctrough ([3]; 25 mg QD): 5.07 ± 0.711 ng/mL | Ctrough ([3]; 50 mg QD): 15.2 ± 5.07 ng/mL | Ctrough ([3]; 50 mg QD, Japanese): 16.5 ± 6.05 ng/mL | Ctrough ([3]; 100 mg QD): 31.9 ± 11.5 ng/mL | steady state Cmax, elderly vs young males ([3]; 100 mg QD): ~1.3 fold | Ctrough ([3]; 100 mg QD, elderly male and female): 54.2 ± 15.3 ng/mL | fe0-24 hr, ss ([3]; 100 mg, elderly): ~17% | Cmax ([3]; 150 mg QD, middle-aged female, fasted): 346 ± 139 ng/mL | fe0-24 hr, ss ([3]; 100 and 150 mg, young males): ~14% | steady state exposure (AUC0-24) higher, elderly Japanese vs non-Japanese ([3]; Day 14): 35% | AUC(0-t) ([3]; both sexes, human, plasma, oral, 100 mg, 100 mg QD, elderly Japanese, read-out: AUC0-24): 2920 ± 693 ng·h/mL | half-life ([3]; both sexes, human, plasma, oral, 100 mg, 100 mg QD, elderly Japanese, read-out: t1/2 (converted)): 3.13 ± 0.163 days | AUC(0-t) ([3]; both sexes, human, plasma, oral, 100 mg, 100 mg QD, elderly male and female, read-out: AUC0-24): 2230 ± 671 ng·h/mL | Cmax ([3]; both sexes, human, plasma, oral, 100 mg, 100 mg QD, elderly male and female, read-out: Cmax): 224 ± 92 ng/mL | half-life ([3]; both sexes, human, plasma, oral, 100 mg, 100 mg QD, elderly male and female, read-out: t1/2 (converted)): 3.68 ± 0.446 days | CL renal ([3]; both sexes, human, oral, 100 mg, elderly male and female): 127 mL/min | Cmax higher than healthy young males ([3]; elderly and females): 50-70% | AUC(0-t) ([3]; female, human, plasma, oral, 100 mg, elderly females, read-out: steady state AUC0-24hr): 2620 ng·h/mL | Cmax ([3]; female, human, plasma, oral, 100 mg, elderly females, read-out: steady state Cmax): 278 ng/mL | AUC(0-t) ([3]; female, human, plasma, oral, 150 mg, 150 mg QD, middle-aged female, fasted, read-out: AUC0-24): 3180 ± 925 ng·h/mL | Cmax ([3]; female, human, plasma, oral, 150 mg, 150 mg QD, middle-aged female, fasted, read-out: Cmax): 246 ± 139 ng/mL | half-life ([3]; female, human, plasma, oral, 150 mg, 150 mg QD, middle-aged female, read-out: t1/2 (converted)): 3.46 ± 0.717 days | Cmax higher, elderly Japanese vs non-Japanese ([3]; human, in vivo): 82% | steady state AUC, middle-aged females vs middle-aged males ([3]; human, in vivo): ~1.5 fold | steady state exposure higher, Japanese vs non-Japanese young males ([3]; human, in vivo): ~30% | half-life ([3]; human, plasma, oral, young and elderly subjects, read-out: terminal t1/2): 2.46 to 3.92 days | AUC(0-t) ([3]; male, human, plasma, oral, 25 mg, 25 mg QD, read-out: AUC0-24): 164 ng·h/mL | Cmax ([3]; male, human, plasma, oral, 25 mg, 25 mg QD, read-out: Cmax): 15.6 ± 6.93 ng/mL | half-life ([3]; male, human, plasma, oral, 25 mg, 25 mg QD, read-out: t1/2 (converted)): 3.92 ± 0.4 days | AUC(0-t) ([3]; male, human, plasma, oral, 50 mg, 50 mg QD, Japanese, read-out: AUC0-24): 613 ± 296 ng·h/mL | Cmax ([3]; male, human, plasma, oral, 50 mg, 50 mg QD, Japanese, read-out: Cmax): 56.9 ± 34.2 ng/mL | half-life ([3]; male, human, plasma, oral, 50 mg, 50 mg QD, Japanese, read-out: t1/2 (converted)): 2.89 ± 0.275 days | AUC(0-t) ([3]; male, human, plasma, oral, 50 mg, 50 mg QD, read-out: AUC0-24): 507 ± 176 ng·h/mL | Cmax ([3]; male, human, plasma, oral, 50 mg, 50 mg QD, read-out: Cmax): 41.5 ± 12.3 ng/mL | half-life ([3]; male, human, plasma, oral, 50 mg, 50 mg QD, read-out: t1/2 (converted)): 3.22 ± 0.371 days | AUC(0-t) ([3]; male, human, plasma, oral, 100 mg, 100 mg QD, Japanese, read-out: AUC0-24): 1710 ± 542 ng·h/mL | Cmax ([3]; male, human, plasma, oral, 100 mg, 100 mg QD, Japanese, read-out: Cmax): 180 ± 111 ng/mL | half-life ([3]; male, human, plasma, oral, 100 mg, 100 mg QD, Japanese, read-out: t1/2 (converted)): 2.37 ± 0.8 days | AUC(0-t) ([3]; male, human, plasma, oral, 100 mg, 100 mg QD, read-out: AUC0-24): 1280 ± 529 ng·h/mL | Cmax ([3]; male, human, plasma, oral, 100 mg, 100 mg QD, read-out: Cmax): 169 ± 80.9 ng/mL | half-life ([3]; male, human, plasma, oral, 100 mg, 100 mg QD, read-out: t1/2 (converted)): 3.32 ± 0.479 days | half-life ([3]; male, human, plasma, oral, 150 mg, 150 mg QD, middle-aged male, after 28 days, read-out: t1/2 (converted)): 3.03 days | AUC(0-t) ([3]; male, human, plasma, oral, 150 mg, 150 mg QD, middle-aged male, read-out: AUC0-24): 2170 ± 452 ng·h/mL | Cmax ([3]; male, human, plasma, oral, 150 mg, 150 mg QD, middle-aged male, read-out: Cmax): 293 ± 67.1 ng/mL | AUC(0-t) ([3]; male, human, plasma, oral, 150 mg, 150 mg QD, read-out: AUC0-24): 2280 ± 1140 ng·h/mL | Cmax ([3]; male, human, plasma, oral, 150 mg, 150 mg QD, read-out: Cmax): 305 ± 215 ng/mL | half-life ([3]; male, human, plasma, oral, 150 mg, 150 mg QD, read-out: t1/2 (converted)): 3.3 ± 0.383 days | AUC(0-t) ([3]; male, human, plasma, oral, 200 mg, 200 mg QD, Japanese, read-out: AUC0-24): 4370 ± 618 ng·h/mL | Cmax ([3]; male, human, plasma, oral, 200 mg, 200 mg QD, Japanese, read-out: Cmax): 631 ± 154 ng/mL | half-life ([3]; male, human, plasma, oral, 200 mg, 200 mg QD, Japanese, read-out: t1/2 (converted)): 2.48 ± 0.0792 days | AUC(0-t) ([3]; male, human, plasma, oral, 200 mg, 200 mg QD, read-out: AUC0-24): 3200 ± 1120 ng·h/mL | Cmax ([3]; male, human, plasma, oral, 200 mg, 200 mg QD, read-out: Cmax): 313 ± 168 ng/mL | half-life ([3]; male, human, plasma, oral, 200 mg, 200 mg QD, read-out: t1/2 (converted)): 2.7 ± 0.271 days | AUC(0-t) ([3]; male, human, plasma, oral, 300 mg, 300 mg QD, read-out: AUC0-24): 6980 ± 1040 ng·h/mL | Cmax ([3]; male, human, plasma, oral, 300 mg, 300 mg QD, read-out: Cmax): 733 ± 164 ng/mL | half-life ([3]; male, human, plasma, oral, 300 mg, 300 mg QD, read-out: t1/2 (converted)): 2.57 ± 0.304 days | AUC(0-t) ([3]; male, human, plasma, oral, 400 mg, 400 mg QD, read-out: AUC0-24): 10500 ± 2140 ng·h/mL | Cmax ([3]; male, human, plasma, oral, 400 mg, 400 mg QD, read-out: Cmax): 1400 ± 257 ng/mL | half-life ([3]; male, human, plasma, oral, 400 mg, 400 mg QD, read-out: t1/2 (converted)): 2.45 ± 0.246 days | CL renal ([3]; male, human, oral, young males, all dose levels): 150 to 187 mL/min | time to steady state ([3]; once daily dosing): ≤ 7 days | AUC higher in females than males ([3]; regardless of age): 50% | effect on QTc or blood pressure [4]: no clinically meaningful effect
